These are literature values, as cited in patent US20090196923A1, “CONTROLLED RELEASE FORMULATION COMPRISING ANTI-EPILEPTIC DRUGS” (priority 2006, published 2009).

On to `NC(=O)N1c2ccccc2CC(=O)c2ccccc21` [Oxcarbazepine, 10, 11-dihydro-10-oxocarbamazepine], for which the water solubility result is on record as “poor water solubility”.
